Test results from patent US20120142685A1, “ORGANIC COMPOUNDS” (priority 2007, published 2012).
pIC50: −log10 of the molar value. Like-named read-outs stand apart in the source and are kept apart here.

What was measured:
[1] = biological target: T1, protein kinase D1 (PKD1) (Homo sapiens, UniProt Q15139); assay: PKD1 TR-FRET (LANCE) kinase assay; format: biochemical; conditions: full length wild-type enzyme, 20 μM ATP; read-out: Inhibitory Activity PKD1
T1 construct: This assay is performed with full length wild-type enzyme that is expressed and purified from Sf9 insect cells; made in house; host or cells: Sf9 insect cells
T1 sequence (Q15139 1-912): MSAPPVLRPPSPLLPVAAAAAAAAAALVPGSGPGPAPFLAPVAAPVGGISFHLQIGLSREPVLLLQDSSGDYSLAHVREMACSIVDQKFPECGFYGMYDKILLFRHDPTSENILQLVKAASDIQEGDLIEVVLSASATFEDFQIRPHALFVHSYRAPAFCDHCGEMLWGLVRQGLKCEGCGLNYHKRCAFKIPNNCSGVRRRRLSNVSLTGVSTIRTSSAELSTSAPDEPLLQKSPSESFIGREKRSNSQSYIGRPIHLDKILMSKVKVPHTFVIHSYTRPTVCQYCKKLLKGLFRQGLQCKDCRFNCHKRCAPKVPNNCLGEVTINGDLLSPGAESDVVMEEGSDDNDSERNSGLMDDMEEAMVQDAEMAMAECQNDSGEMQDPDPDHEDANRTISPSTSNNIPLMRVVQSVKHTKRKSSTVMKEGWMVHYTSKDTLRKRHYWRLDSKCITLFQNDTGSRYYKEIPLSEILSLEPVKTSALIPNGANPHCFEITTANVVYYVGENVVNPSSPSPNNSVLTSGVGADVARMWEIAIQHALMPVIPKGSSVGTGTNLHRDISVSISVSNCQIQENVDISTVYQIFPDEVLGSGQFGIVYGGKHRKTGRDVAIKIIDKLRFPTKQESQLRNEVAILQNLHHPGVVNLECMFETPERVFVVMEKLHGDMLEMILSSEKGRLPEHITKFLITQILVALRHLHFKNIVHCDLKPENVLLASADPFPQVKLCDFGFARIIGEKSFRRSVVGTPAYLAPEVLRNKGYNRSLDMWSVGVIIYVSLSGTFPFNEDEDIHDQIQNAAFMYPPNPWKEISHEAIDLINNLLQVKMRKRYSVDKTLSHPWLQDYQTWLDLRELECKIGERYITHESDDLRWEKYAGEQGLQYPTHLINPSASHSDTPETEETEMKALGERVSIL
From the text: The assay to measure protein kinase D1 (PKD1) activity is a time-resolved fluorescence resonance transfer (TR-FRET) assay using PerkinElmer's LANCE™ technology. In this case, a biotinylated syntide-2 peptide is used as the substrate in this reaction. Phosphorylation of the syntide-2 substrate is detected by a specific antibody that recognizes the phosphorylated peptide. A second fluorophore, APC, is conjugated to streptavidin that binds the biotinylated syntide-2 peptide. For detection, the europium fluorophore can be excited by 340 nM light which then emits at 615 nM. Therefore, when the europium labeled secondary antibody binds on the phosphorylated peptide, it is brought into close contact with the APC and excites this fluorophore. The APC emission is at 665 nm and the 665 nM:615 nM ratio is a readout of PKD1 activity.
This assay is performed with full length wild-type enzyme that is expressed and purified from Sf9 insect cells. The reaction buffer consists of 35 mM Tris-HCl pH7.5, 5 mM MgCl2, 0.02% Tween-20, 20 μM ATP, 1 mM DTT and 0.2 μg/mL PKD1 enzyme. The enzyme reaction is initiated by the addition of 2 μM syntide-2 peptide substrate and the reaction carried out for 50 minutes at room temperature. The reaction is stopped by a stop/detection buffer consisting of 50 mM EDTA, 0.18 mg/mL rabbit polyclonal anti-phospho syntide-2 antibody, 0.5 nM europium labeled anti-rabbit IgG and 10 nM streptavidin conjugated APC. After a one hour incubation with the stop/detection buffer, the reaction is read on an Envision 2100 Reader using a LANCE™ Eu/APC dual protocol. As described above, a 665 nM:615 nM ratio is determined to measure substrate phosphorylation and enzyme activity. Compounds are typically tested in an 11 point dose response fashion in triplicate for each concentration used. IC50 values are calculated using an Activity Base (IDBS) software program.

[2] = tested on: HDAC5 nuclear export; assay: HDAC5 nuclear export assay in neonatal rat ventricular myocytes (GFP-HDAC5, PGF2α stimulated); format: cell-based; conditions: Ventricular myocyte, 2 h; for pIC50: NRVMs, GFP-HDAC5, PGF2α stimulation two hours, read-out: Inhibitory Activity HDAC; for IC50: read-out: Inhibitory Activity HDAC (nM)
Protocol: Compounds are evaluated in the HDAC5 nuclear […] assay, a 384-well plate-based assay that enables high throughput screening (HTS) to identify small molecules that block agonist-dependent nuclear export of HDAC5. This assay employs the Cellomics High Content Imaging platform (Giuliano & Taylor 1998) and adenovirus encoding green fluorescent protein (GFP) tagged HDAC5. Neonatal rat ventricular myocytes (NRVMs) are infected with GFP-HDAC5 encoding virus and plated on gelatin-coated 384-well dishes. Cells are exposed to compound and stimulated with an prostaglandin (PGF2α), which is a potent stimulus for HDAC5 nuclear export. Following two hours of stimulation, cells are fixed and GFP-HDAC5 localization quantified using the Cellomics system, which provides a read-out of relative fluorescence intensity in the cytoplasmic versus nuclear compartment.

SMILES	pIC50 [1]	pIC50 [2]	IC50 [2] [nM]
CNc1cc(-c2cc3cnccc3c(NCCCO)n2)ccn1 [Example 1]	6.42	–	–
CNc1cc(-c2cc3cnccc3c(NC)n2)ccn1 [Example 2, 1-Methylamino-3-(2-methylaminopyridin-4-yl)-[2,6]-naphthyridine]	6.08	–	–
c1ccc(Nc2cc(-c3cc4cnccc4c(N4CCNCC4)n3)ccn2)cc1 [Example 4, Phenyl-[4-(1-piperazin-1-yl-[2,6]naphthyridin-3-yl)pyridin-2-yl]amine]	7.96	–	2
OCCNc1nc(-c2ccnc(NC3CCCCC3)c2)cc2cnccc12 [Example 5, 2-[3-(2-Cyclohexylaminopyridin-4-yl)-[2,6]naphthyridin-1-ylamino]ethanol]	6.42	–	–
CC(C)Nc1cc(-c2cc3cnccc3c(NCCO)n2)ccn1 [Example 6, 2-[3-(2-Isopropylaminopyridin-4-yl)-[2,6]naphthyridin-1-ylamino]ethanol]	6.81	–	–
CC(=O)N1CCN(c2nc(-c3ccnc(NC4CCCCC4)c3)cc3cnccc23)CC1 [Example 11, 1-{4-[3-(2-Cyclohexylaminopyridin-4-yl)-[2,6]naphthyridin-1-yl]piperazin-1-yl}ethanone]	6.73	–	–
CN(C)CC1CCN(c2nc(-c3ccnc(NC4CCCCC4)c3)cc3cnccc23)CC1 [Example 12, Cyclohexyl-{4-[1-(4-dimethylaminomethylpiperidin-1-yl)-[2,6]naphthyridin-3-yl]pyridin-2-yl}amine]	6.68	–	–
CN1CCN(c2nc(-c3ccnc(NC4CCCCC4)c3)cc3cnccc23)CC1 [Example 13, Cyclohexyl-{4-[1-(4-methylpiperazin-1-yl)-[2,6]naphthyridin-3-yl]pyridin-2-yl}amine]	8.70	–	206
c1cc2c(NC3CCCNC3)nc(-c3ccnc(NC4CCCCC4)c3)cc2cn1 (centres unmarked) [Example 15, [3-(2-Cyclohexylaminopyridin-4-yl)-[2,6]naphthyridin-1-yl]piperidin-3-ylamine]	7.85	–	605
O=C(NC1CC1)C1CCN(c2nc(-c3ccnc(NC4CCOCC4)c3)cc3cnccc23)CC1 [Example 17, 1-{3-[2-(Tetrahydropyran-4-ylamino)pyridin-4-yl]-[2,6]naphthyridin-1-yl}piperidine-4-carboxylic acid cyclopropylamide]	8.70	–	88
CCNC(=O)N1CCN(c2nc(-c3ccnc(Nc4ccn(C)n4)c3)cc3cnccc23)CC1 [Example 18, 4-{3-[2-(1-Methyl-1H-pyrazol-3-ylamino)pyridin-4-yl]-[2,6]naphthyridin-1-yl}piperazine-1-carboxylic acid ethylamide]	7.70	–	534

The remaining compounds from weak to strong by pIC50 [1], led by results:

pIC50 [1]	pIC50 [2]	SMILES	IC50 [2] [nM]
7.08	6.69	NC(=O)C1CCN(c2nc(-c3ccnc(NC4CCCCC4)c3)cc3cnccc23)CC1 [Example 10, 1-[3-(2-Cyclohexylaminopyridin-4-yl)-[2,6]naphthyridin-1-yl]piperidine-4-carboxylic acid amide]	–
7.26	7.07	COc1cccc(Nc2cc(-c3cc4cnccc4c(NCCO)n3)ccn2)c1 [Example 7]	–
7.26	–	CN(C)CCNc1nc(-c2ccnc(NC3CCCCC3)c2)cc2cnccc12 [Example 8, N-[3-(2-Cyclohexylaminopyridin-4-yl)-[2,6]naphthyridin-1-yl]-N′,N′-dimethylethane-1,2-diamine]	–
7.39	6.12	CN(C)CCNc1nc(-c2ccnc(Nc3ccccc3)c2)cc2cnccc12 [Example 9, N,N-Dimethyl-N′-[3-(2-phenylaminopyridin-4-yl)-[2,6]naphthyridin-1-yl]-ethane-1,2-diamine]	–
7.77	6.44	Cn1ccc(Nc2cc(-c3cc4cnccc4c(N4CCC5(CCNC5=O)CC4)n3)ccn2)n1 [Example 20, 8-{3-[2-(1-Methyl-1H-pyrazol-3-ylamino)pyridin-4-yl]-[2,6]naphthyridin-1-yl}-2,8-diaza-spiro[4.5]decan-1-one]	–
7.85	6.43	COCCNc1cc(-c2cc3cnccc3c(N3CCNCC3)n2)ccn1 [Example 21, (2-Methoxyethyl)-[4-(1-piperazin-1-yl-[2,6]naphthyridin-3-yl)-pyridin-2-yl]amine]	–
8.70	7.22	O=C(NCCO)C1CCN(c2nc(-c3ccnc(NC4CCOCC4)c3)cc3cnccc23)CC1 [Example 16, 1-{3-[2-(Tetrahydropyran-4-ylamino)pyridin-4-yl]-[2,6]naphthyridin-1-yl}piperidine-4-carboxylic acid (2-hydroxyethyl)amide]	–
9.00	7.44	c1cc2c(NC3CCNC3)nc(-c3ccnc(NC4CCCCC4)c3)cc2cn1 (centres unmarked) [Example 14, [3-(2-Cyclohexylaminopyridin-4-yl)-[2,6]naphthyridin-1-yl]pyrrolidin-3-ylamine]	–
9.22	7.49	c1cc2c(N3CCNCC3)nc(-c3ccnc(NC4CCCCC4)c3)cc2cn1 [Example 3, Cyclohexyl-[4-(1-piperazin-1-yl-[2,6]naphthyridin-3-yl)pyridin-2-yl]amine]	–
9.40	7.92	Cn1ccc(Nc2cc(-c3cc4cnccc4c(N4CCC(C(N)=O)CC4)n3)ccn2)n1 [Example 19, 1-{3-[2-(1-Methyl-1H-pyrazol-3-ylamino)pyridin-4-yl]-[2,6]naphthyridin-1-yl}piperidine-4-carboxylic acid amide]	–
